In patent publication US20190231751A1, “TREATMENT OF FIBROTIC DISORDERS WITH JUN N-TERMINAL KINASE INHIBITORS” (Imago Pharmaceuticals, Inc., priority 2016, published 2019):

Columns and labels:
Assay type in all cases: biochemical
JNK1 = JNK1 (Homo sapiens, UniProt P45983); test: In vitro JNK1 inhibition (Table 1)
Method: (§1) In vitro assays for the determination of JNK activities are known in the art and exemplary assay formats are described herein.
(§2) IC50 values in Table 1 were determined using the procedures as described in U.S. Pat. No. 8,450,353.

JNK2 = JNK2 (Homo sapiens, UniProt P45984); test: In vitro JNK2 inhibition (Table 1)
Method: as §1, §2

JNK3 = JNK3 (Homo sapiens, UniProt P53779); test: In vitro JNK3 inhibition (Table 1)
Method: as §1, §2

Chain of JNK2 (P45984 whole entry, species assumed): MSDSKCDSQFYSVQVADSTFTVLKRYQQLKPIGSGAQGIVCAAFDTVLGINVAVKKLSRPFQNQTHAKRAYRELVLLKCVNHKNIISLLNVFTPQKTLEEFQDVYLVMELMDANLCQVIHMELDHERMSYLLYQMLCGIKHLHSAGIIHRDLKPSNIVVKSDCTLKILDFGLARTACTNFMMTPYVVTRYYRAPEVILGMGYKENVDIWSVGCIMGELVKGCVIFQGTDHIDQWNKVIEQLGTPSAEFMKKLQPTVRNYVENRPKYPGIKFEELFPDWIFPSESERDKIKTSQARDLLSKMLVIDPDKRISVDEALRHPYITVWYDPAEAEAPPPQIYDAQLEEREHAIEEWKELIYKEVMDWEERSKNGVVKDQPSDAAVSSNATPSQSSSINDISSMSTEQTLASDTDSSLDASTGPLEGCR
Chain of JNK1 (P45983 whole entry, species assumed): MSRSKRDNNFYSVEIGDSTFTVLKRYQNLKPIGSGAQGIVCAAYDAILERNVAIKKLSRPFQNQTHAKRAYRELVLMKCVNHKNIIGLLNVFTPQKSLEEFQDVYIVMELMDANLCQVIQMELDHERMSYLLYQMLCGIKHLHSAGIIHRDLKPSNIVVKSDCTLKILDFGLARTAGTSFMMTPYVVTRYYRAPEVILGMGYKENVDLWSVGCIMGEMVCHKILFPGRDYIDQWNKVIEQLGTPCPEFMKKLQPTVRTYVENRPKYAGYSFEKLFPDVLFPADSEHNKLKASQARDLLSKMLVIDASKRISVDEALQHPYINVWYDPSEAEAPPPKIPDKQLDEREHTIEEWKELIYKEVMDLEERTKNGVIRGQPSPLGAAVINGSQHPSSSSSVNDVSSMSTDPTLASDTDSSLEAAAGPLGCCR
Chain of JNK3 (P53779 whole entry, species assumed): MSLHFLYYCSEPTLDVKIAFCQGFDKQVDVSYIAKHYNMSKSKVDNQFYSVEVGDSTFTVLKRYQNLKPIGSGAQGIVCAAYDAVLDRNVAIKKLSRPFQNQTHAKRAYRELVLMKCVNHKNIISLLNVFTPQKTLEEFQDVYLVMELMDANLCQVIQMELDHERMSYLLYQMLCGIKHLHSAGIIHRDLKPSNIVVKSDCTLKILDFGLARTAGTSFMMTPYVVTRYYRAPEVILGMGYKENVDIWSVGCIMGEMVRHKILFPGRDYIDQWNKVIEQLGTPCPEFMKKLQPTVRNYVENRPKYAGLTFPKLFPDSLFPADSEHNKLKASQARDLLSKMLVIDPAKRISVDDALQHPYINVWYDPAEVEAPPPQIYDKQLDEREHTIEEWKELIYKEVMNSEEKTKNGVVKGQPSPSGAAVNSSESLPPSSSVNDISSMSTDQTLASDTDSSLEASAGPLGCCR

Row | IC50 (JNK1) [nM] | IC50 (JNK2) [nM] | IC50 (JNK3) [nM] | Compound
1 | < 100 | < 100 | < 100 | O=C(CN1C(=O)CCc2cc(F)ccc21)Nc1scc(Br)c1-c1ncn[nH]1 [N-(4-bromo-3-(1H-1,2,4-triazol-5-yl)thiophen-2-yl)-2-(6-fluoro-2-oxo-3,4-dihydroquinolin-1(2H)-yl)acetamide]
2 | < 100 | < 100 | < 100 | O=C(Cn1c(=O)ccc2cc(F)ccc21)Nc1scc(Br)c1-c1ncn[nH]1 [N-(4-bromo-3-(1H-1,2,4-triazol-5-yl)thiophen-2-yl)-2-(6-fluoro-2-oxoquinolin-1(2H)-yl)acetamide]
3 | < 100 | < 100 | < 100 | O=C(Cc1c(F)ccc2ncccc12)Nc1scc(Br)c1-c1ncn[nH]1 [N-(4-bromo-3-(1H-1,2,4-triazol-5-yl)thiophen-2-yl)-2-(6-fluoroquinolin-5-yl)acetamide]
4 | < 100 | < 100 | < 100 | O=C(CN1C(=O)CCc2ccc(Cl)cc21)Nc1scc(Br)c1-c1ncn[nH]1 [N-(4-bromo-3-(1H-1,2,4-triazol-5-yl)thiophen-2-yl)-2-(7-chloro-2-oxo-3,4-dihydroquinolin-1(2H)-yl)acetamide]
5 | < 100 | < 100 | < 100 | N#Cc1ccc2ccc(=O)n(CC(=O)Nc3scc(Br)c3-c3ncn[nH]3)c2c1 [N-(4-bromo-3-(1H-1,2,4-triazol-5-yl)thiophen-2-yl)-2-(7-cyano-2-oxoquinolin-1(2H)-yl)acetamide]
6 | < 100 | < 100 | < 100 | O=C(Cn1c(=O)ccc2cc(C(F)(F)F)c(F)cc21)Nc1scc(Br)c1-c1ncn[nH]1 [N-(4-bromo-3-(1H-1,2,4-triazol-5-yl)thiophen-2-yl)-2-(7-fluoro-2-oxo-6-(trifluoromethyl)quinolin-1(2H)-yl)acetamide]
7 | < 100 | < 100 | < 100 | O=C(Cn1c(=O)ccc2ccc(F)cc21)Nc1scc(Br)c1-c1ncn[nH]1 [N-(4-bromo-3-(1H-1,2,4-triazol-5-yl)thiophen-2-yl)-2-(7-fluoro-2-oxoquinolin-1(2H)-yl)acetamide]
8 | < 100 | < 100 | < 100 | O=C(Cc1ccc(F)c2cnccc12)Nc1scc(Br)c1-c1ncn[nH]1 [N-(4-bromo-3-(1H-1,2,4-triazol-5-yl)thiophen-2-yl)-2-(8-fluoroisoquinolin-5-yl)acetamide]
9 | < 100 | < 100 | < 100 | O=C(Cc1cccc2cnccc12)Nc1scc(Br)c1-c1ncn[nH]1 [N-(4-bromo-3-(1H-1,2,4-triazol-5-yl)thiophen-2-yl)-2-(isoquinolin-5-yl)acetamide]
10 | < 100 | < 100 | < 100 | O=C(Cc1cccc2ncccc12)Nc1scc(Br)c1-c1ncn[nH]1 [N-(4-bromo-3-(1H-1,2,4-triazol-5-yl)thiophen-2-yl)-2-(quinolin-5-yl)acetamide]
11 | 100 to 10000 | < 100 | < 100 | O=C(Cn1c(=O)ccc2cc(C(F)(F)F)ccc21)Nc1scc(Br)c1-n1nccn1 [N-(4-bromo-3-(2H-1,2,3-triazol-2-yl)thiophen-2-yl)-2-(2-oxo-6-(trifluoromethyl)quinolin-1(2H)-yl)acetamide]
12 | < 100 | < 100 | < 100 | O=C(CN1C(=O)CCc2ncccc21)Nc1scc(Br)c1-c1ncco1 [N-(4-bromo-3-(oxazol-2-yl)thiophen-2-yl)-2-(2-oxo-3,4-dihydro-1,5-naphthyridin-1(2H)-yl)acetamide]
13 | < 100 | < 100 | < 100 | CN(C)CCn1cnc(-c2c(Cl)csc2NC(=O)Cn2c(=O)ccc3cc(C(F)(F)F)ccc32)n1 [N-(4-chloro-3-(1-(2-(dimethylamino)ethyl)-1H-1,2,4-triazol-3-yl)thiophen-2-yl)-2-(2-oxo-6-(trifluoromethyl)quinolin-1(2H)-yl)acetamide]
14 | < 100 | < 100 | < 100 | CN(C)CCCn1cnc(-c2c(Cl)csc2NC(=O)Cn2c(=O)ccc3cc(C(F)(F)F)ccc32)n1 [N-(4-chloro-3-(1-(3-(dimethylamino)propyl)-1H-1,2,4-triazol-3-yl)thiophen-2-yl)-2-(2-oxo-6-(trifluoromethyl)quinolin-1(2H)-yl)acetamide]
15 | < 100 | < 100 | < 100 | O=C(Cn1c(=O)ccc2cc(C(F)(F)F)ccc21)Nc1scc(Cl)c1-c1ncn(CCCN2CCCC2)n1 [N-(4-chloro-3-(1-(3-(pyrrolidin-1-yl)propyl)-1H-1,2,4-triazol-3-yl)thiophen-2-yl)-2-(2-oxo-6-(trifluoromethyl)quinolin-1(2H)-yl)acetamide]
16 | < 100 | < 100 | < 100 | O=C(Cn1c(=O)ccc2cc(C(F)(F)F)ccc21)Nc1scc(Cl)c1-c1ncn(CCCN2CCOCC2)n1 [N-(4-chloro-3-(1-(3-morpholinopropyl)-1H-1,2,4-triazol-3-yl)thiophen-2-yl)-2-(2-oxo-6-(trifluoromethyl)quinolin-1(2H)-yl)acetamide]
17 | < 100 | < 100 | < 100 | Cn1cnc(-c2c(Cl)csc2NC(=O)CN2C(=O)CCc3ncccc32)n1 [N-(4-chloro-3-(1-methyl-1H-1,2,4-triazol-3-yl)thiophen-2-yl)-2-(2-oxo-3,4-dihydro-1,5-naphthyridin-1(2H)-yl)acetamide]
18 | < 100 | < 100 | < 100 | Cn1cnc(-c2c(Cl)csc2NC(=O)Cn2c(=O)ccc3nc(C(F)(F)F)ccc32)n1 [N-(4-chloro-3-(1-methyl-1H-1,2,4-triazol-3-yl)thiophen-2-yl)-2-(2-oxo-6-(trifluoromethyl)-1,5-naphthyridin-1(2H)-yl)acetamide]
19 | < 100 | < 100 | < 100 | Cn1cnc(-c2c(Cl)csc2NC(=O)Cn2c(=O)ccc3cnc(C(F)(F)F)cc32)n1 [N-(4-chloro-3-(1-methyl-1H-1,2,4-triazol-3-yl)thiophen-2-yl)-2-(2-oxo-7-(trifluoromethyl)-1,6-naphthyridin-1(2H)-yl)acetamide]
20 | < 100 | < 100 | < 100 | Cn1cnc(-c2c(Cl)csc2NC(=O)Cn2c(=O)ccn3nc(C(F)(F)F)cc23)n1 [N-(4-chloro-3-(1-methyl-1H-1,2,4-triazol-3-yl)thiophen-2-yl)-2-(5-oxo-2-(trifluoromethyl)pyrazolo[1,5-a]pyrimidin-4(5H)-yl)acetamide]
21 | < 100 | < 100 | < 100 | Cn1cnc(-c2c(Cl)csc2NC(=O)Cn2c(=O)ccn3nccc23)n1 [N-(4-chloro-3-(1-methyl-1H-1,2,4-triazol-3-yl)thiophen-2-yl)-2-(5-oxopyrazolo[1,5-a]pyrimidin-4(5H)-yl)acetamide]
22 | < 100 | < 100 | < 100 | O=C(CN1C(=O)CCc2ncccc21)Nc1scc(Cl)c1-c1nc[nH]n1 [N-(4-chloro-3-(1H-1,2,4-triazol-3-yl)thiophen-2-yl)-2-(2-oxo-3,4-dihydro-1,5-naphthyridin-1(2H)-yl)acetamide]
